Reference: patent US20250186436A1 (4E Therapeutics, Inc., priority 2021, published 2025)
“And” between values parts separate entries of the source, which are not always exact repeats. Equal values may be shown once. Read-outs that look alike come from different tables or passages of the source.

Tests used:
[1] = PK study in male Sprague-Dawley rats dosed once per day for five days, PO 1 mg/kg, 0.5% HPMC (Example 6); type: in vivo; conditions: 0.5% HPMC suspension
Method: Example 6: PK study of 4ET-03-053 in male Sprague-Dawley rats dosed once per day for five days (P0; 1 mg/kg; 0.500HPMC aqueous suspension)
Table 18 provides plasma and brain concentrations of 4ET-03-0053 at 24 hr after the last dose of five daily P0 doses.

[2] = Plasma and brain concentrations, brain to plasma ratio 24 hr after last of five 25 mg/kg PO doses (Example 8); type: in vivo; conditions: rats, 24 hr after the last of five 25 mg/kg PO doses; for concentration at 24 hr / concentration at 24 h: Sprague-Dawley, rat, oral, 25 mg/kg; for concentration at 24 h: male
Excerpt: Table 24 provides plasma and brain concentrations at 24 hr after the last dose of five daily PO doses of 4ET-03-053.

[3] = test system: eIF4E phosphorylation in hDRGs; assay: p-eIF4E immunofluorescence in cultured human dorsal root ganglion cells (hDRGs); type: cell-based; conditions: immunofluorescence
Method: For all human DRG experiments, DRGs were recovered from organ donors at the Southwest Transplant Alliance under an IRB approved protocol at University of Texas at Dallas. DRGs were recovered within 3 hrs of cross clamp. DRGs were recovered and taken back to the University of Texas lab where they were cultured using the protocol described previously. Cultures were grown on glass coverslips for microscopy. Coverslips were coated with poly-D-lysine and laminin to improve neuronal adherence to the coverslips. Cultures of human DRG neurons were grown for 4-7 days prior to treatment with OSM. OSM treatment was done in culture media for a period of 30 min. Cells were stained with antibodies using the same protocol as described above for HEK293 cells. Imaging was done on an Olympus FV1200 microscope and image analysis was done with CellSens software. Statistical analysis was done with Graphpad Prism V8.
Human DRG recovery and other experimental protocols were the same as described herein.

[4] = PK study in male Sprague-Dawley rats dosed once per day for five days, PO 25 mg/kg, 0.5% HPMC (Example 8); type: in vivo; conditions: 0.5% HPMC suspension
[5] = Sprague-Dawley rats, day 5 of daily PO 1 mg/kg, individual animals, 1 mg/kg
[6] = Sprague-Dawley rats, day 5 of daily PO 1 mg/kg, mean (n = 3)
[7] = male Sprague-Dawley rats, single (first) PO 1 mg/kg dose, individual animals, 1 mg/kg
[8] = male Sprague-Dawley rats, single (first) PO 1 mg/kg dose, mean (n = 3)
[9] = male, Sprague-Dawley, rat, in vivo, po, 1 mg/kg, Sprague-Dawley rats, day 5 of daily PO 1 mg/kg, individual animals
[10] = male, Sprague-Dawley, rat, in vivo, po, 1 mg/kg, Sprague-Dawley rats, day 5 of daily PO 1 mg/kg, mean (n = 3)
[11] = male, Sprague-Dawley, rat, in vivo, po, 1 mg/kg, male Sprague-Dawley rats, single (first) PO 1 mg/kg dose, individual animals
[12] = male, Sprague-Dawley, rat, in vivo, po, 1 mg/kg, male Sprague-Dawley rats, single (first) PO 1 mg/kg dose, mean (n = 3)

For Cc1cc(Nc2cc(N)ncn2)c(=O)n2c1C(=O)NC21CCC2(CC2)CC1 [4ET-03-053, 6″-((6-Aminopyrimidin-4-yl)amino)-8″-methyl-2″H-dispiro[cyclopropane-1,1′-cyclohexane-4′,3″-imidazo[1,5-a]pyridine]-1″,5″-dione], the “time to peak plasma concentration” value ([1]; Sprague-Dawley rats, after five daily PO doses of 1 mg/kg) was at most 2 h, the AUCinf [1, 5] was 43537 ng·h/mL and 36277 ng·h/mL and the AUCinf/D [1, 5] was 49825 kg·h/kL and 43537 kg·h/kL and 36277 kg·h/kL. For the same compound, the AUClast [1, 5] was 40882 ng·h/mL and 34335 ng·h/mL, the Clast [1, 5] was 318 ng/mL and 291 ng/mL and the Cmax [1, 5] was 4550 ng/mL and 4500 ng/mL. The Cmax/D [1, 5] was 4150 kg/kL and 4550 kg/kL and 4500 kg/kL, the F [1, 5] was 96.8% and 84.6% and 70.5% and the MRTinf [1, 5] was 7.96 h. The t1/2 [1, 5] was 5.90 h and 6.21 h, the AUCinf/D [1, 6] was 43213 kg·h/kL and the Cmax/D [1, 6] was 4400 kg/kL. For the same compound, the F [1, 6] was 84.0%, the AUCinf [1, 7] was 33302 ng·h/mL and 30451 ng·h/mL and the AUCinf/D [1, 7] was 37178 kg·h/kL and 33302 kg·h/kL and 30451 kg·h/kL. The AUClast [1, 7] was 31340 ng·h/mL and 28992 ng·h/mL, the Clast [1, 7] was 237 ng/mL and 224 ng/mL and the Cmax [1, 7] was 2750 ng/mL. The Cmax/D [1, 7] was 2400 kg/kL and 2750 kg/kL and 2580 kg/kL, the F [1, 7] was 72.2% and 64.7% and 59.2% and the MRTinf [1, 7] was 8.31 h and 7.83 h. For the same compound, the t1/2 [1, 7] was 5.77 h and 5.92 h, the AUCinf/D [1, 8] was 33644 kg·h/kL and the Cmax/D [1, 8] was 2577 kg/kL. The F [1, 8] was 65.4%, the “time to peak plasma concentration” value ([1]; male Sprague-Dawley rats, single PO 1 mg/kg) was at most 2 h and the bioavailability ([1]; male, Sprague-Dawley, rat, in vivo, po, 1 mg/kg, Sprague-Dawley rats, after five daily PO doses of 1 mg/kg) was 84%. For the same compound, the concentration at 24 h ([1]; male, Sprague-Dawley, rat, in vivo, po, 1 mg/kg, Sprague-Dawley rats, after five daily PO doses of 1 mg/kg, at 24 hr, read-out: last measurable concentration) was 278 ng/mL, the Cmax ([1]; male, Sprague-Dawley, rat, in vivo, po, 1 mg/kg, Sprague-Dawley rats, after five daily PO doses of 1 mg/kg, read-out: peak plasma concentration (Cmax)) was 4400 ng/mL and the half-life ([1]; male, Sprague-Dawley, rat, in vivo, po, 1 mg/kg, Sprague-Dawley rats, after five daily PO doses of 1 mg/kg, read-out: terminal half-life (t1/2) (converted)) was 6.01 h. The AUC(0-inf) ([1]; male, Sprague-Dawley, rat, in vivo, po, 1 mg/kg, Sprague-Dawley rats, after five daily PO doses of 1 mg/kg, read-out: total systemic exposure (AUCinf)) was 43200 ng·h/mL, the AUC(0-t) [1, 9] was 47100 ng·h/mL and the MRT inf [1, 9] was 7.89 h. The Tmax [1, 9] was 1 h, the AUC(0-inf) ([1]; male, Sprague-Dawley, rat, in vivo, po, 1 mg/kg, Sprague-Dawley rats, day 5 of daily PO 1 mg/kg, individual animals, read-out: AUCinf) was 49800 ng·h/mL and the concentration at 24 h ([1]; male, Sprague-Dawley, rat, in vivo, po, 1 mg/kg, Sprague-Dawley rats, day 5 of daily PO 1 mg/kg, individual animals, read-out: Clast) was 226 ng/mL. The Cmax ([1]; male, Sprague-Dawley, rat, in vivo, po, 1 mg/kg, Sprague-Dawley rats, day 5 of daily PO 1 mg/kg, individual animals, read-out: Cmax) was 4150 ng/mL, the half-life ([1]; male, Sprague-Dawley, rat, in vivo, po, 1 mg/kg, Sprague-Dawley rats, day 5 of daily PO 1 mg/kg, individual animals, read-out: t1/2 (converted)) was 5.91 h and the AUC(0-t) [1, 10] was 40800 ng·h/mL. It also gave an MRT inf [1, 10] of 7.8 h, a Tmax [1, 10] of 1.33 h and an AUC(0-inf) ([1]; male, Sprague-Dawley, rat, in vivo, po, 1 mg/kg, Sprague-Dawley rats, day 5 of daily PO 1 mg/kg, mean (n = 3), read-out: AUCinf) of 43200 ng·h/mL. It also gave a concentration at 24 h ([1]; male, Sprague-Dawley, rat, in vivo, po, 1 mg/kg, Sprague-Dawley rats, day 5 of daily PO 1 mg/kg, mean (n = 3), read-out: Clast) of 278 ng/mL, a Cmax ([1]; male, Sprague-Dawley, rat, in vivo, po, 1 mg/kg, Sprague-Dawley rats, day 5 of daily PO 1 mg/kg, mean (n = 3), read-out: Cmax) of 4400 ng/mL and a half-life ([1]; male, Sprague-Dawley, rat, in vivo, po, 1 mg/kg, Sprague-Dawley rats, day 5 of daily PO 1 mg/kg, mean (n = 3), read-out: t1/2 (converted)) of 6.01 h. It also gave an AUC(0-t) [1, 11] of 35100 ng·h/mL, an MRT inf [1, 11] of 8.25 h and a Tmax [1, 11] of 2 h. The AUC(0-inf) ([1]; male, Sprague-Dawley, rat, in vivo, po, 1 mg/kg, male Sprague-Dawley rats, single (first) PO 1 mg/kg dose, individual animals, read-out: AUCinf) was 37200 ng·h/mL, the concentration at 24 hr ([1]; male, Sprague-Dawley, rat, in vivo, po, 1 mg/kg, male Sprague-Dawley rats, single (first) PO 1 mg/kg dose, individual animals, read-out: Clast) was 179 ng/mL and the Cmax ([1]; male, Sprague-Dawley, rat, in vivo, po, 1 mg/kg, male Sprague-Dawley rats, single (first) PO 1 mg/kg dose, individual animals, read-out: Cmax) was 2400 ng/mL. The half-life ([1]; male, Sprague-Dawley, rat, in vivo, po, 1 mg/kg, male Sprague-Dawley rats, single (first) PO 1 mg/kg dose, individual animals, read-out: t1/2 (converted)) was 5.51 h, the AUC(0-t) [1, 12] was 31800 ng·h/mL and the MRT inf [1, 12] was 8.13 h. For the same compound, the Tmax [1, 12] was 2 h, the AUC(0-inf) ([1]; male, Sprague-Dawley, rat, in vivo, po, 1 mg/kg, male Sprague-Dawley rats, single (first) PO 1 mg/kg dose, mean (n = 3), read-out: AUCinf) was 33600 ng·h/mL and the concentration at 24 hr ([1]; male, Sprague-Dawley, rat, in vivo, po, 1 mg/kg, male Sprague-Dawley rats, single (first) PO 1 mg/kg dose, mean (n = 3), read-out: Clast) was 213 ng/mL. It also gave a Cmax ([1]; male, Sprague-Dawley, rat, in vivo, po, 1 mg/kg, male Sprague-Dawley rats, single (first) PO 1 mg/kg dose, mean (n = 3), read-out: Cmax) of 2580 ng/mL, a half-life ([1]; male, Sprague-Dawley, rat, in vivo, po, 1 mg/kg, male Sprague-Dawley rats, single (first) PO 1 mg/kg dose, mean (n = 3), read-out: t1/2 (converted)) of 5.73 h and a bioavailability ([1]; male, Sprague-Dawley, rat, in vivo, po, 1 mg/kg, male Sprague-Dawley rats, single PO 1 mg/kg) of 65.4%. The concentration at 24 h ([1]; male, Sprague-Dawley, rat, in vivo, po, 1 mg/kg, male Sprague-Dawley rats, single PO 1 mg/kg, at 24 hr, read-out: last measurable concentration) was 213 ng/mL, the Cmax ([1]; male, Sprague-Dawley, rat, in vivo, po, 1 mg/kg, male Sprague-Dawley rats, single PO 1 mg/kg, read-out: peak plasma concentration (Cmax)) was 2580 ng/mL and the half-life ([1]; male, Sprague-Dawley, rat, in vivo, po, 1 mg/kg, male Sprague-Dawley rats, single PO 1 mg/kg, read-out: terminal half-life (t1/2) (converted)) was 5.73 h. It also gave an AUC(0-inf) ([1]; male, Sprague-Dawley, rat, in vivo, po, 1 mg/kg, male Sprague-Dawley rats, single PO 1 mg/kg, read-out: total systemic exposure (AUCinf)) of 33600 ng·h/mL, a concentration at 24 hr ([2]; brain homogenate, brain homogenate, mean, read-out: Tissue Homogenate Conc., Mean) of 122 ng/mL and a concentration at 24 hr ([2]; brain, brain, read-out: Mean Tissue) of 489 ng/g. It also gave a concentration at 24 h ([2]; brain homogenate, brain homogenate, individual animals (n = 3), read-out: Tissue Homogenate Conc.) of 104 ng/mL, a concentration at 24 h ([2]; plasma, plasma, individual animals (n = 3), read-out: Plasma Conc.) of 5340 ng/mL and a concentration at 24 h ([2]; plasma, plasma, mean, read-out: Plasma Conc., Mean) of 5890 ng/mL. The “Tissue Homogenate Conc.” value ([2]; brain homogenate, individual animals (n = 3)) was 127 ng/mL and 136 ng/mL, the “Plasma Conc.” value ([2]; plasma, individual animals (n = 3)) was 6120 ng/mL and 6220 ng/mL and the “phosphorylation of eIF4E in hDRGs” value ([3]; 30 min treatment) was “reduces phosphorylation of eIF4E”. The “phosphorylation of eIF4E in hDRGs in the presence of OSM” value ([3]; in presence of OSM) was “reduces phosphorylation of eIF4E”, the half-life ([4]; male, Sprague-Dawley, rat, in vivo, po, 25 mg/kg, single PO 25 mg/kg dose, individual animals) was 7.03 h and the concentration at 24 h ([4]; male, Sprague-Dawley, rat, in vivo, po, 25 mg/kg, single PO 25 mg/kg dose, mean (n = 3), read-out: Clast) was 2890 ng/mL. For the same compound, the concentration at 24 h ([4]; male, Sprague-Dawley, rat, in vivo, po, 25 mg/kg, single PO 25 mg/kg, at 24 hr, read-out: last measurable concentration) was 2890 ng/mL, the F ([4]; single PO 25 mg/kg dose, mean (n = 3)) was 26.5% and the “time to peak plasma concentration” value ([4]; single PO 25 mg/kg) was at most 2 h.
